Where “and” joins values, the source holds several entries; their conditions need not be identical. Identical values can stand only once. Entries after “also recorded” stand apart in the source; their conditions may differ.
Tests used:
[1] = system: spinal cord injured patients; test: Electrodiagnostic testing (nerve conduction, electromyography, somatosensory evoked potentials); type: in vivo, human
Experimental: (§1) The schedule of each trial was the same. The patient was admitted to the hospital on the preceding day and in the early morning was assessed by neurological examination and electro-diagnostic evaluation. Administration of the drug or placebo, through an in dwelling venous catheter, was then begun and continued for approximately 2 hours, arranged in 20 minute sequences based on delivery of 1 ml aliquots of the 4-AP solution. The patient was monitored electroencephalographically at frequent intervals throughout the procedure. Samples of blood and urine were obtained from an additional intravenous catheter and from the urinary catheter respectively. Blood was obtained at intervals up to 5 hours from the beginning of drug delivery and urine obtained pre-infusion and at 1 and 2 hours after the beginning of infusion. The patients were re-evaluated by complete neurological examination, by the same examiner, at the end of the period of drug delivery. They were then re-examined with the electrodiagnostic tests. A more limited neurological examination was sometimes performed during drug delivery in an attempt to identify any early changes, without producing significant testing fatigue. The electrodiagnostic tests were repeated at 2 hours after the cessation of drug delivery. Patients showing apparent effects of the treatment remained in the hospital overnight and were examined on the following day. Subsequent contact with the patients was by telephone interview or as a result of their correspondence regarding longer term changes associated with their treatment.
(§2) Immediately before and after the infusion of 4-AP or placebo, and at approximately 2 hours after the end of the infusion, patients were evaluated with a set of standard electro-diagnostic tests: conduction in peroneal, posterior tibial and sural nerves, electromyography of tibial is anterior and gastroc-nemius muscles during rest and maximal voluntary contraction, and somatosensory evoked potentials. Patients were also monitored with electroencephalography, at intervals during the infusion, to look for evidence of potential for seizure activity.

[2] = system: spinal cord injured patients; test: Negative side-effects, EEG and vital sign monitoring; type: in vivo, human
Experimental: as §1, §2

[3] = system: spinal cord injured patients; test: Effects reported by the subjects and overall clinical benefit (function, chronic pain, spasticity); type: in vivo, human
Experimental: The experimental design was a double-blind, placebo-controlled, crossover study in which each patient was administered the drug and a vehicle control on different occasions, separated by two weeks. The order of delivery was randomized.
as §1
(§3) Two of the patients who reported more prolonged effects of the drug were returned to the hospital after 4 months for a second, unblinded trial, which included neurological examinations daily for 3-4 days. Plasma samples were also obtained daily from these two patients, for measurement of 4-AP.

[4] = Plasma levels of 4-AP after intravenous infusion (column liquid chromatography); type: in vivo, human
Experimental: The drug was obtained in purified powder form from the Regis Chemical Company (Morton Grove, Ill.) and prepared as an injectable solution, using a 0.9% saline vehicle (Uges and Huizinga, 1981), by the pharmacy of St. Joseph's Hospital. The pharmacy was also responsible for testing pyrogenicity, randomizing the order in which drug and vehicle were administered to different patients, and for providing an escalating scale of dosage during the course of the study. The 4-AP for the first two patients was prepared at a concentration of 3 mg/ml, and the concentration was increased to 4 and 5 mg/ml for succeeding subjects (see Table 1). The drug was further diluted by a factor of 50 times in dextrose saline before delivery, and was administered in the form of a continuous intravenous infusion at a rate of 150 ml/hr controlled by a peristaltic infusion pump. Therefore the delivery rate of the drug increased from 9 mg/hr in the first two patients to 15 mg/hr in the last four. Total intended dosage ranged from 18 to 30 mg. The vehicle control was indistinguishable from the drug solution and was delivered in an identical manner.
as §1, §3
Measurement of 4-AP in plasma and urine
Samples of blood were collected from an in dwelling venous catheter in the arm opposite that into which the drug was delivered. Ten or eleven such samples were obtained at intervals up to 5 hours after the initiation of drug delivery (see FIG. 1). Urine samples were withdrawn from the patients' urinary catheter bags at 1 and 2 hours after the initiation of drug infusion.
Plasma and urine samples were stored at -80° C. until 4-AP levels were analyzed by means of column liquid chromatography, according to a technique described in detail elsewhere (Kostka et al, 1992). Briefly, both plasma and urine samples were subjected to benzoylation by the Schotten-Baumann reaction to convert 4-AP to N-benzoyl-4-AP (Bz4-AP) prior to liquid-liquid -extraction. Propionyl procainamide (PPA) was chosen as the internal standard. […]

[5] = system: spinal cord injured patients; test: Deep tendon (segmental) reflex score; type: in vivo, human
Experimental: as §1
Segmental reflexes (biceps, triceps, knee- and ankle-jerk) were evaluated in the conventional manner with a reflex hammer and scored on a 0-4 point scale:
0--no detectable response
2--brisk response of normal amplitude
3--abnormally large amplitude response
4--large amplitude response with some clonus.
The total possible score in a patient with hyperreflexia and clonus in all tested muscles was 32.

[6] = system: potassium channels; conditions: cited from earlier work
[7] = subject named in the block (LJ; EB; GCh; AW)
[8] = 2 hours after infusion of 4-AP, total of subjects

SMILES: Nc1ccncc1 [4-AP, 4-aminopyridine]
- electromyographic data ([1]; after 4-AP): consistent with observed changes in strength of muscle contraction
- peripheral nerve conduction ([1]; after 4-AP): No consistent effects on peripheral nerve conduction
- somatosensory evoked potentials (posterior tibial nerve stimulation), no detectable response ([1]; six subjects, before or after injection): no detectable somatosensory evoked potentials
- form or amplitude of somatosensory evoked potentials ([1]; subjects, following 4-AP): did not change significantly in form or amplitude
- most frequent side effect: arm discomfort ([2]; arm in which the drug was infused): discomfort in the arm in which the drug was infused
- adverse indications on EEG and vital signs ([2]; during infusion): No adverse indications were detected
- duration of warm sensation under the skin from neck to back ([2]; subject four): two days
- side effects in individual subject [2, 7]: pain in the left arm, and some nausea and light-headedness; also recorded: "warm sensation under the skin from neck to back" for two days and an episode of constipation; also recorded: no negative side effects; also recorded: After 21 mg of the infusion, their arm became quite painful and they became anxious, then angry, and began to show alternative bouts of sweating and shivering
- infusion suspended / not completed ([2]; subject two, 25 mg rather than planned 30 mg): Infusion was suspended in this case because of a combination of discomfort in the arm at the site of infusion, and a significant degree of agitation and anxiety
- reproduction of effects at second administration ([3]; 4 months later, two subjects GCh, EB): effects and side effects similar to those seen in the earlier, blinded administration; also recorded: the effects were reproduced by a second administration of the drug 4 months later in two of the subjects
- return to usual state ([3]; after infusion, subject gamma): ≤ 3 days
- increase in strength of arms and right leg, reported by subject ([3]; day after infusion, subject beta): about 25%
- delayed or prolonged effects reported ([3]; five patients with less complete injuries): all reported some delayed or prolonged effects
- duration of self-sustaining changes in the nervous system ([3]; human, in vivo): 1 to 2 days
- patients desiring to receive the drug regularly ([3]; human, in vivo): four of the patients expressed a strong desire to be able to receive the drug on a regular basis
- reduced usage of analgesic ([3]; human, in vivo): greatly reduced usage of analgesic in one case
- reduced usage of antispastic medication ([3]; human, in vivo): antispastic medication in at least two cases
- relation between side-effects and apparent benefit ([3]; human, in vivo): no relation between the appearance of side-effects and apparent benefit
- motor and/or sensory effects in incomplete injuries ([3]; remaining 5 subjects): showed motor and/or sensory effects
- duration of markedly reduced spasticity ([3]; second infusion, subject gamma): more than 24 hours
- duration of improved function ([3]; some subjects): over 48 hours
- reduction of chronic pain and spasticity, motor control and sensory ability (overall) ([3]; spinal cord injured individuals): relief of chronic pain and spasticity; also recorded: can increase motor control and sensory ability and reduce chronic pain and spasticity; also recorded: long lasting reductions in spasticity and in chronic pain and dysesthesias; also recorded: shown to reduce chronic pain and spasticity in certain individuals
- proportion of patients with incomplete injury showing benefit ([3]; spinal cord injury patients): 5 of 6 and 5 of the 6
- duration of reduction in spasticity ([3]; subject four): three days
- dysesthesia (persistent itch in one shoulder) ([3]; subject four): no change in this condition
- return to normal requirement for Baclofen ([3]; subject four): only returned to their normal requirement for Baclofen on the fourth day
- finger movements back and forth, left hand ([3]; subject four, normally a few flickers): 20-30 times
- duration of absence of pain in the legs ([3]; subject gamma): at least 2 days
- sensation, reported by subject [3, 7]: more sensation below the level of injury; also recorded: remarkable return of sensation below the level of the injury to virtually normal sensation on both sides; also recorded: marked improvement in sensation below the lesion; also recorded: increased sensation; also recorded: more sensation and strength in their legs
- chronic pain / paresthesia, reported by subject ([3]; subject named in the block (LJ; GCh; GCu)): The usual burning pain they experienced in their buttocks was absent, though there was still some burning in their lower limbs, which had increased; also recorded: the pain in the legs was absent, though it remained to some extent in their feet; also recorded: reduction of chronic pain; also recorded: significant reduction in the usual tingling paresthesia in their hands
- movement / motor power, reported by subject ([3]; subject named in the block (b79 LJ; b81 EB; b83, b84 GCh; b86 AW; b88 GCu)): slightly greater movement in one thumb and index finger; also recorded: increased motor power in the left arm and leg; also recorded: greater endurance; also recorded: motor endurance below the level of the injury; also recorded: improved strength and sensation in their legs; also recorded: their arms and right leg had been stronger
- spasticity ([3]; subject named in the block (b81 EB; b83, b84 GCh)): marked reduction in spasticity; also recorded: decrease in spasticity
- breathing ([3]; subject two): marked improvement in breathing
- duration of motor and sensory effects incl. improved breathing ([3]; subject two): about 2 days
- infused dose at which lower limb strength increased ([3]; subject two): 8 mg
- relief of chronic, painful dysesthesias below the lesion ([3]; subjects, predominantly proximal in the limb): considerable relief
- beneficial effects in neurologically complete lesions ([3]; two patients): Two patients with neurologically "complete" spinal cord lesions showed no beneficial effects
- plasma level of 4-AP after end of infusion ([4]; 2-3 hours after the end of infusion, all subjects): significant plasma level
- plasma level remaining relative to peak level ([4]; by 2 days after the infusion, from rate of decline in two patients): less than 1%
- correlation of peak plasma level with dose administered ([4]; dose in mg/kg/hr (FIG. 2)): correlated significantly
- concentration at 48 h ([4]; human, plasma, iv, 48 hours / 2 days after second, unblinded administration, subjects, read-out: 4-AP plasma concentration (below limit of detection)): < 3 ng/mL
- time of peak level in the circulation ([4]; i.v. infusion approximately 2 hours): slightly before or after the end of the infusion period
- peak plasma level achieved for each mg/kg infused ([4]; i.v. infusion over approximately 2 hours, least squares regression, per mg/kg): approximately 0.27 mg/l
- plasma level of 4-AP the day after infusion ([4]; second administration, two subjects): detectable levels of the drug in the plasma the day after infusion
- correlation of time course of elimination with prolonged neurological effects ([4]; two subjects, 3-4 days): clearly did not correlate
- oscillation of measured drug levels ([4]; up to 5 hours from start of infusion, most subjects): some degree of oscillation of the measured drug levels; also recorded: oscillation in the measured drug levels
- deep tendon reflex scores at 24 and 48 hours ([5]; 24 and 48 hours, EB, GCh): slight reductions in deep tendon reflex scores at 24 and 48 hours after infusion
- change in score for deep tendon reflexes, arms, TOTAL [5, 8]: +13
- change in score for deep tendon reflexes, legs, TOTAL [5, 8]: +2
- change in score for deep tendon reflexes, legs ([5]; 2 hours after infusion of 4-AP, total possible 32, subject one, SC, HT, GCh, AW, GCu): +2 and +1 and -2 and 0 and +3
- change in score for deep tendon reflexes, arms ([5]; 2 hours after infusion of 4-AP, total possible 32, subject one, SC, HT, GCh, GCu): +4 and +1 and 0
- reflex responses at 24 hours ([5]; 24 hours, AW, LJ): reduced reflex responses
- deep tendon reflex amplitude immediately after infusion ([5]; predominantly in the arms): marked tendency for increase in amplitude of deep tendon reflexes
- spontaneous activity of injured nerve fibres on potassium channel blockade [6]: tends to produce or enhance such spontaneous activity and to elicit "burst" (multiple action potential) responses
